Measured values taken from US4472397A, “Use of certain 1-substituted-triazolo-benzodiazepines to treat psychoses” (priority 1983, dated 1984).
“Also recorded” adds a separate entry of the source. Like-named read-outs stand apart in the source and are kept apart here.

What was measured:
[1] = tested on: ^3 H-Spiroperidol binding; experiment: animal or person; assay type: in vivo, Male ICR mice; conditions: for activity at 50 mg/kg: Mus musculus, sc, read-out: In vivo ^3 H-Spiroperidol % of Control
Experimental: The following representative compounds were tested in an in vivo mouse ^3 H-Spiroperidol binding test.
The test procedure was as follows:
Male ICR mice weighing 20-22 g were used.
The animals were dosed with the ^3 H-Spiroperidol solution at 66 micro-Curie/kg in 0.2 ml, by the subcutaneous route. The animals were sacrificed 2 hours later and sections of the brains of the mice were removed with striata and septum and some adjacent cortex. The tissues were weighed after freezing on dry ice and dissolved in 1 ml of Protosol overnight at 35° C. The Protosol was neutralized with 80 μl of 6N hydrochloric acid and 15 ml of ACS scintillation fluid was added. All samples were then counted in a liquid scintillation counter.
A background of 25 counts per minute (CPM) was subtracted from the counts for each sample counted. The CPM/mg of the tissue was calculated and a statistical t test was used to test the significance of the value.

schizoaffective patient = experiment: Treatment of a human schizoaffective patient with adinazolam (Example 2); assay type: in vivo; conditions: 5 mg bid first day, 5 mg tid second day; over two days; one patient refractory to tricyclic antidepressant and stelazine
Experimental: In a human patient, adinazolam was given for two days at a dosage of 5 mg bid (twice a day) the first day and 5 mg tid (three times a day) the second day to a human schizoaffective patient suffering moodcongruent delusions and persecutory auditory hallucinations which had been refractory to four months of therapy with a tricyclic antidepressant and stelazine. The clinician serving the patient found a remarkable approximately fifty percent (50%) improvement in the patient's condition over the two days of treatment with adinazolam.

[2] = tested on: psychotic, including schizophrenic, disorders; experiment: Clinical trials in human patients with psychotic, including schizophrenic, disorders (Example 3); assay type: in vivo
Experimental: Clinical trials with the lead compound, adinazolam, in the treatment of human patients for psychotic, including schizophrenic, disorders in the absence of depression are in progress. […] Patients are being maintained on dosages of from 2.5 to 20 mg. of adinazolam qid (four times a day).
In one patient extrapyramidal side effects persisting from previous medication disappeared with adinazolam therapy.

serum prolactin = experiment: Serum prolactin levels in open-label depression studies; assay type: in vivo, human
Source text: (Three of the patients had been treated recently with a phenothiazine or amoxapine).

[3] = tested on: intractable psychosis or schizoaffective illnesses; experiment: Preliminary clinical trials in human patients with intractable psychosis or schizoaffective illnesses; assay type: in vivo; conditions: small, but effective and safe dosage amounts
acute psychosis = conditions: cited from earlier work
[4] = Dose 50 mg/kg, subcutaneous, one hour before ^3 H-Spiroperidol, sacrificed 2 hours later

## CN(C)Cc1nnc2n1-c1ccc(Cl)cc1C(c1ccccc1)=NC2 [Compound 1, 8-chloro-1-[(dimethylamino)methyl]-6-phenyl-4H--s-triazolo[4,3-a][1,4]-benzodiazepine]
[1]
  activity at 50 mg/kg: 82%
[1]; animals, in vivo, listed as adinazolam
  Activity in the ^3 H-Spiroperidol binding test (in words): active; also recorded: weak but suggested antipsychotic-like activity
Schizoaffective patient
  improvement in the patient's condition: ~50%
[2]; five patients, 2.5 to 20 mg qid, absence of depression
  improvement of patients: all experienced moderate or marked improvement
[2]; one patient
  extrapyramidal side effects persisting from previous medication: disappeared
[2]; one patient, medication withdrawn for 24 hours
  effect of unintentional withdrawal of medication: reverted to a psychotic condition
[2]; one patient, reinitiated in the morning after 24 hour withdrawal, that same day
  effect of reinitiated therapy: became lucid again that same day
Serum prolactin; four patients (2 males; 2 females), three recently treated with a phenothiazine or amoxapine
  prolactin levels in patients with elevated prolactin at introductory screening: the prolactin levels in all four patients normalized
Serum prolactin; open-label depression studies
  effect on serum prolactin levels: no apparent elevating effect on serum prolactin levels
[3]
  symptoms of schizophrenia and affective improvement: improved symptoms of schizophrenia and affective improvement

## CN1CCN(c2nnc3n2-c2ccc(Cl)cc2C(c2ccccc2)=NC3)CC1 [Compound 2, 8-chloro-1-(4-methyl-1-piperazinyl)-6-phenyl-4H--s-triazolo[4,3-a][1,4]benzodiazepine]
[1]; Dose 50 mg/kg, subcutaneous, one hour before ^3 H-Spiroperidol, sacrificed 2 hours later, 50 mg/kg
  In vivo ^3 H-Spiroperidol % of Control: 73%
[1]; [4]
  activity at 50 mg/kg: 69%

## CN(C)CCc1nnc2n1-c1ccc(Cl)cc1C(c1ccccc1)=NC2 [Compound 3, 8-chloro-1-[2-(dimethylamino)ethyl]-6-phenyl-4H--s-triazolo[4,3-a][1,4]benzodiazepine]
[1]; [4]
  activity at 50 mg/kg: 78%

## CN1CCN(c2nnc3n2-c2ccccc2C(c2ccccc2)=NC3)CC1 [Compound 4, 1-(4-methyl-1-piperazinyl)-6-phenyl-4H--s-triazolo[4,3-a][1,4]benzodiazepine]
[1]; [4]
  activity at 50 mg/kg: 59%

## CC1NC(c2ccccc2)c2cc(Cl)ccc2-n2c1nnc2N1CCN(C)CC1 (stereo not shown) [Compound 5, 8-chloro-1-(4-methyl-1-piperazinyl)-4-methyl-5,6-dihydro-6-phenyl-4H--s-triazolo[4,3-a][1,4]benzodiazepine]
[1]; [4]
  In vivo ^3 H-Spiroperidol % of Control: 89%

## CN1CCN(c2nnc3n2-c2ccccc2C(c2ccccc2Cl)=NC3)CC1 [Compound 6, 1-(4-methyl-1-piperazinyl)-6-(2-chlorophenyl)-4H--s-triazolo[4,3-a][1,4]benzodiazepine]
[1]; [4]
  activity at 50 mg/kg: 65%

## CCN1CCN(c2nnc3n2-c2ccccc2C(c2ccccc2Cl)=NC3)CC1 [Compound 7, 1-(4-ethyl-1-piperazinyl)-6-(2-chlorophenyl)-4H--s-triazolo[4,3][1,4]benzodiazepine]
[1]; [4]
  activity at 50 mg/kg: 72%

## CN1C(=O)CN=C(c2ccccc2)c2cc(Cl)ccc21 [diazepam]
Acute psychosis; over 24 hours of treatment
  effectiveness versus haloperidol in acute psychosis: at least as effective as haloperidol
Acute psychosis; treatment of acute psychosis
  sedation effects: marked sedation effects
